Measured values taken from patent publication US20130267571A1, “TERPENOID ANALOGUES AND USES THEREOF FOR TREATING NEUROLOGICAL CONDITIONS” (NeuroQuest Inc., priority 2010, published 2013).

Assays:
zebrafish embryos = test: Zebrafish response (anaesthesia) assay, touch response/swim behaviour; assay type: in vivo; conditions: Danio rerio, 1.5 h; complete anaesthesia (scale 1) in 50% of AB wild type embryos (54 hpf), 90 min at 28° C.
Source text: Briefly, the ZEA assay involves applying essential oils, fractions or individual compounds to developmentally staged zebrafish embryos followed by monitoring of embryonic touch response/swim behaviour and evaluation of the dose response relationship for each substance. Using a four point scale to describe the embryonic behaviours (Table 4), initial analysis focused on monitoring and recording these changes and evaluating the level of bioactivity. The effective concentration to generate complete anaesthesia in 50% of the embryos (EC50), were evaluated as follows:
Compounds are tested on developmentally staged AB “wild type” zebrafish embryos (54 hpf+/−2 hpf) at concentrations ranging between 10 and 400 μM.
Each compound is diluted in a 95% ethanol or DMSO carrier to create a working stock solution from which appropriate dilutions are made in standard embryo E3 media.
1000 μl of each concentration or appropriate carrier control are added to 10 wild type AB embryos in a single well of a 24 well plate, in duplicate.
The embryos are incubated for 90 min at 28° C. (optimal temperature for embryonic growth) in the diluted compound.
A four point scale (Table 4) is used to evaluate the touch response and swim behaviour for each embryo in all wells.
The effectiveness of the compound will be based on its ability to generate complete anaesthesia (scale: 1) in 50% of the embryos at a given concentration (EC50).
The EC50 values are calculated using GraphPad Prism® software to analyze the log (dose) response curves.

[1] = tested on: voltage-gated Na+ channels; test: Sodium (Na+) channel analysis in rat DRG neurons using whole cell patch-clamp; assay type: cell-based; conditions: Na+ currents in isolated rat DRG neurons, 3 min in presence of drug, read-out: IC50 range
Experimental: Isolated DRG neurons were suspended in primary neuron basal media and placed on glass coverslips for incubation in humidified atmosphere of 5% CO2 at 37° C. Coverslips carrying cells was transferred to the bath of an inverted microscope (Zeiss), continuously perfused with oxygenated artificial cerebro-spinal fluid (ACSF) containing (in mM) 124 NaCl, 2.5 KCl, 2 CaCl2, 1 MgSO4, 25 NaHCO3, 1 NaH2PO4, and 10 glucose, at a rate of 2-3 ml/min. Recording of whole-cell membrane currents were made at room temperature. Recording pipette (4-6 MS2) was filled with internal solution containing (in mM) 145 K-gluconate, 5 NaCl, 1 MgCl2, 0.2 EGTA, 10 HEPES, 2 Mg-ATP, 0.1 Na-GTP, and 10 phosphocreatine. To isolate Na^+ currents, DRG neurons were superfused with ACSF containing tetraethylammonium chloride (TEA) 5 mM, cesium chloride (CsCl) 100 μM and cadmium chloride (CdCl) 1 mM, to block potassium and calcium currents. NQ compounds were freshly dissolved in ASCF containing TEA, CsCl and CdCl, prior application via the bath.
For recording Na^+ currents, cells were held at −60 mV before applying a conditioning hyperpolarizing step (50 ms) to −90 mv to reactivate the voltage-gated Na^+ channels. The conditioning pulse was followed by depolarizing (150 ms) test pulses to 50 mV in 10 mV increments. Na^+ currents were recorded in absence, after 3 min in presence of the drugs and after a recovery time of 3 min.

TRPV1 = TRPV1 (Homo sapiens, UniProt Q8NER1); test: TRPV1 assay, calcium imaging; assay type: cell-based; conditions: Ca2+ imaging (Fura-2-AM) after stimulation with 1 μM capsaicin
Chain of TRPV1 (Q8NER1 whole entry, species assumed): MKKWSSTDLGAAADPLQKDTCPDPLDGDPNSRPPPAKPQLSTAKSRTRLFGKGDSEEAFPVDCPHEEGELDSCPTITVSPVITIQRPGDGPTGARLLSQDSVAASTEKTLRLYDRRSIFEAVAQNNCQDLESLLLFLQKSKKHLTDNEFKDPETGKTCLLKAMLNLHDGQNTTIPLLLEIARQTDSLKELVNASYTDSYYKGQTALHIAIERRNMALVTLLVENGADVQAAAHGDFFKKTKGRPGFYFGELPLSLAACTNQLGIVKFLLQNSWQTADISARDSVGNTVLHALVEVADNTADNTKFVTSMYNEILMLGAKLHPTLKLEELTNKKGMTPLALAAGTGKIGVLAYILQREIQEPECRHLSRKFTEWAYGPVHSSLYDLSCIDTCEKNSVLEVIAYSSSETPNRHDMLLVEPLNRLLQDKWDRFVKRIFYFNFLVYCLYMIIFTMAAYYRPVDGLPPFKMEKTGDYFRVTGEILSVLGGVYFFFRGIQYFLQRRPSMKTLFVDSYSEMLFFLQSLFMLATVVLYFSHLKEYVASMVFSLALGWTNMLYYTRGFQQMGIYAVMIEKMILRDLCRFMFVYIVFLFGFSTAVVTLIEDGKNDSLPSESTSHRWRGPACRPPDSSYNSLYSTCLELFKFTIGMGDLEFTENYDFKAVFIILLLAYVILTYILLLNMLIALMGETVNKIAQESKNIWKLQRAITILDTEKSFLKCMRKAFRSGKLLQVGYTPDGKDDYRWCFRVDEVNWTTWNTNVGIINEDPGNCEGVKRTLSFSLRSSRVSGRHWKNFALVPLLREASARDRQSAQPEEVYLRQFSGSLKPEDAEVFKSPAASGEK
Experimental: Briefly, cells are seeded into poly-L-lysine-coated, glass-bottom, 24-well plates (1×10^5 cells/well) and incubated overnight under standard culture conditions to achieve the desired confluency. Culture media is removed and cells washed twice with HBS prior to incubation for 15 to 60 min at 37° C. with a labelling mixture comprised of Fura-2-AM and pluronic acid in HBS. Data collection occurs over an eight minute period and follows the same general sequence. Following loading, cells are stimulated by addition of 1 μM of capsaicin agonist for 2 min, after which a concentration series of the test sample (e.g., (0.5, 5, 10, 50 μg/ml) is added and imaging continued for an additional 5 min. Capsazepine (20 μM) serves as a known reference antagonist, while cells that are mock-treated or receive vehicle (e.g., DMSO) alone serve as negative controls. For imaging, plates are placed on the stage of an inverted epifluorescence microscope (e.g. Axiovert 200, Zeiss) equipped with a CCD digital camera (e.g., Axiocam MRm, Zeiss). For each well of the plate, a sequence of image pairs (excitation at 340 nm and 380 nm) are collected to capture intracellular calcium flux. Image sequences are analyzed in Image) (NIH) and average pixel intensities calculated for six representative cells in each test condition to achieve mean fluorescence.

IC50 [1]: 100 to 1000 µM | IC50 (TRPV1): > 552 µM
SMILES: CNC(=O)C=C(C)CCC=C(C)C [NQ 2980, N,3,7-trimethylocta-2,6-dienamide]
EC50 (zebrafish embryos): 187 µM
